Measurements reported in ChEMBL document CHEMBL1141662, “Synthesis and antiproliferative activity of aryl- and heteroaryl-hydrazones derived from xanthone carbaldehydes” (Eur J Med Chem, 2008).

Columns and labels:
MCF7 [1] = assay: Antiproliferative activity against human MCF7 cells assessed as cell viability at 10 uM after 24 hrs by MTT assay; type: functional; conditions: MCF7, 24 h, read-out: Activity
MCF7 [2] = assay: Antiproliferative activity against human MCF7 cells assessed as cell viability at 1 uM after 24 hrs by MTT assay; type: functional; conditions: MCF7, 24 h, read-out: Activity
[3] = Antiproliferative activity against human KB 3.1 cells assessed as cell viability at 10 uM after 24 hrs by MTT assay; type: functional; conditions: KB 3-1, 24 h, read-out: Activity
[4] = Antiproliferative activity against human KB 3.1 cells assessed as cell viability at 1 uM after 24 hrs by MTT assay; type: functional; conditions: KB 3-1, 24 h, read-out: Activity
[5] = Antiproliferative activity against human KB 3.1 cells after 24 hrs by MTT assay; type: functional, cell-based; conditions: KB 3-1, 24 h
[6] = Antiproliferative activity against human KB 3.1 cells after 72 hrs by MTT assay; type: functional, cell-based; conditions: KB 3-1, 72 h
[7] = Ratio of IC50 for human KB 3.1 cells after 24 hrs to IC50 for human KB 3.1 cells after 72 hrs by MTT assay; type: functional
MCF7 [8] = assay: Antiproliferative activity against human MCF7 cells after 24 hrs by MTT assay; type: functional, cell-based; conditions: MCF7, 24 h
MCF7 [9] = assay: Antiproliferative activity against human MCF7 cells after 72 hrs by MTT assay; type: functional, cell-based; conditions: MCF7, 72 h
MCF7 [10] = assay: Ratio of IC50 for human […] cells after 24 hrs to IC50 for human MCF7 cells after 72 hrs by MTT assay; type: functional

## CC(=O)Oc1cc(OC(C)=O)c2c(=O)c3ccc(/C=N/Nc4ccccn4)cc3oc2c1
MCF7 [1]
  viability at 10 µM: 100%
MCF7 [2]
  viability at 1 µM: 100%
[3]
  viability at 10 µM: 87%
[4]
  viability at 1 µM: 100%

## CC(=O)Oc1cc(OC(C)=O)c2c(=O)c3cccc(/C=N\Nc4ccccn4)c3oc2c1
MCF7 [1]
  viability at 10 µM: 79%
MCF7 [2]
  viability at 1 µM: 80%
[3]
  viability at 10 µM: 90%
[4]
  viability at 1 µM: 95%

## CC(=O)Oc1cc(OC(C)=O)c2c(=O)c3cc(/C=N/NC4=NCCN4)ccc3oc2c1
MCF7 [1]
  viability at 10 µM: 14%
MCF7 [2]
  viability at 1 µM: 64%
[3]
  viability at 10 µM: 14%
[4]
  viability at 1 µM: 100%
[5]
  IC50: 11.3 µM
[6]
  IC50: 4.7 µM
[7]
  Ratio IC50: 2.4
MCF7 [8]
  IC50: 9.3 µM
MCF7 [9]
  IC50: 7 µM
MCF7 [10]
  Ratio IC50: 1.3

## CC(=O)Oc1cc(OC(C)=O)c2c(=O)c3ccc(/C=N/Nc4ccccc4)cc3oc2c1
MCF7 [1]
  viability at 10 µM: 100%
MCF7 [2]
  viability at 1 µM: 100%
[3]
  viability at 10 µM: 100%
[4]
  viability at 1 µM: 100%

## O=c1c2ccc(/C=N/Nc3ccccn3)cc2oc2cc(O)cc(O)c12
MCF7 [1]
  viability at 10 µM: 3%
MCF7 [2]
  viability at 1 µM: 100%
[3]
  viability at 10 µM: 2%
[4]
  viability at 1 µM: 77%

## O=c1c2ccc(/C=N/NC3=NCCN3)cc2oc2cc(O)cc(O)c12
MCF7 [1]
  viability at 10 µM: 70%
MCF7 [2]
  viability at 1 µM: 73%
[3]
  viability at 10 µM: 80%
[4]
  viability at 1 µM: 93%

## O=c1c2cccc(/C=N\NC3=NCCN3)c2oc2cc(O)cc(O)c12
MCF7 [1]
  viability at 10 µM: 82%
MCF7 [2]
  viability at 1 µM: 97%
[3]
  viability at 10 µM: 75%
[4]
  viability at 1 µM: 90%

## O=c1c2cccc(/C=N\Nc3ccccn3)c2oc2cc(O)cc(O)c12
MCF7 [1]
  viability at 10 µM: 12%
MCF7 [2]
  viability at 1 µM: 86%
[3]
  viability at 10 µM: 3%
[4]
  viability at 1 µM: 96%

## O=c1c2cc(/C=N/NC3=NCCN3)ccc2oc2cc(O)cc(O)c12
MCF7 [1]
  viability at 10 µM: 64%
MCF7 [2]
  viability at 1 µM: 90%
[3]
  viability at 10 µM: 92%
[4]
  viability at 1 µM: 99%

## CC(=O)Oc1cc(OC(C)=O)c2c(=O)c3cc(/C=N/Nc4ccccc4)ccc3oc2c1
MCF7 [1]
  viability at 10 µM: 100%
MCF7 [2]
  viability at 1 µM: 100%
[3]
  viability at 10 µM: 100%
[4]
  viability at 1 µM: 100%

## O=c1c2cc(/C=N/Nc3ccccc3)ccc2oc2cc(O)cc(O)c12
MCF7 [1]
  viability at 10 µM: 72%
MCF7 [2]
  viability at 1 µM: 100%
[3]
  viability at 10 µM: 82%
[4]
  viability at 1 µM: 100%

## O=c1c2ccc(/C=N/Nc3ccccc3)cc2oc2cc(O)cc(O)c12
MCF7 [1]
  viability at 10 µM: 100%
MCF7 [2]
  viability at 1 µM: 100%
[3]
  viability at 10 µM: 61%
[4]
  viability at 1 µM: 100%

## O=c1c2cccc(/C=N\Nc3ccccc3)c2oc2cc(O)cc(O)c12
MCF7 [1]
  viability at 10 µM: 100%
MCF7 [2]
  viability at 1 µM: 100%
[3]
  viability at 10 µM: 96%
[4]
  viability at 1 µM: 100%

## CC(=O)Oc1cc(OC(C)=O)c2c(=O)c3ccc(/C=N/NC4=NCCN4)cc3oc2c1
MCF7 [1]
  viability at 10 µM: 13%
MCF7 [2]
  viability at 1 µM: 35%
[3]
  viability at 10 µM: 13%
[4]
  viability at 1 µM: 85%
[5]
  IC50: 1.6 µM
[6]
  IC50: 1.8 µM
[7]
  Ratio IC50: 0.9
MCF7 [8]
  IC50: 1.9 µM
MCF7 [9]
  IC50: 2.4 µM
MCF7 [10]
  Ratio IC50: 0.8

## O=c1c2cc(/C=N/Nc3ccccn3)ccc2oc2cc(O)cc(O)c12
MCF7 [1]
  viability at 10 µM: 41%
MCF7 [2]
  viability at 1 µM: 58%
[3]
  viability at 10 µM: 90%
[4]
  viability at 1 µM: 95%

## CC(=O)Oc1cc(OC(C)=O)c2c(=O)c3cccc(/C=N\Nc4ccccc4)c3oc2c1
MCF7 [1]
  viability at 10 µM: 100%
MCF7 [2]
  viability at 1 µM: 100%
[3]
  viability at 10 µM: 82%
[4]
  viability at 1 µM: 100%

## CC(=O)Oc1cc(OC(C)=O)c2c(=O)c3cc(/C=N/Nc4ccccn4)ccc3oc2c1
MCF7 [1]
  viability at 10 µM: 70%
MCF7 [2]
  viability at 1 µM: 85%
[3]
  viability at 10 µM: 60%
[4]
  viability at 1 µM: 98%

## CC(=O)Oc1cc(OC(C)=O)c2c(=O)c3cccc(/C=N\NC4=NCCN4)c3oc2c1
MCF7 [1]
  viability at 10 µM: 48%
MCF7 [2]
  viability at 1 µM: 80%
[3]
  viability at 10 µM: 66%
[4]
  viability at 1 µM: 95%
[5]
  IC50: 6.8 µM
[6]
  IC50: 6.5 µM
[7]
  Ratio IC50: 1.05
MCF7 [8]
  IC50: 5.1 µM
MCF7 [9]
  IC50: 5.6 µM
MCF7 [10]
  Ratio IC50: 0.9

## COc1cccc2c1C(=O)c1c(O)c3c(c(O)c1C2=O)C[C@@](O)(C(=O)CO)C[C@@H]3O[C@H]1C[C@H](N)[C@H](O)[C@H](C)O1 [DOXORUBICIN]
[5]
  IC50: 0.01 µM
[6]
  IC50: 0.0004 µM
